Assays:
[1] = xn = mol fraction of the nth substance listed; details: 101 kPa, Liquid; for speed of sound: Sing-around technique in a fixed-path interferometer
[2] = refractive index (Na D-line) (dimensionless); xn = mol fraction of the nth substance listed; details: 101 kPa, Liquid

c1ccccc1 [benzene] + CC1CCCCC1
x2 = 0
Details | mass density, 298.15 K [kg/m3] | mass density, 303.15 K [kg/m3] | mass density, 308.15 K [kg/m3] | refractive index, 298.15 K | refractive index, 303.15 K | refractive index, 308.15 K | speed of sound, 298.15 K [m/s] | viscosity, 298.15 K [mPa·s] | viscosity, 303.15 K [mPa·s] | viscosity, 308.15 K [mPa·s]
[1] | 873.4 | 868.1 | 862.7 | – | – | – | 1302 | 0.602 | 0.56 | 0.523
[2] | – | – | – | 1.4971 | 1.4936 | 1.4903 | – | – | – | –

CC1CCCCC1 [methylcyclohexane] + COc1ccccc1
x1 = 1
Details | mass density, 298.15 K [kg/m3] | mass density, 303.15 K [kg/m3] | mass density, 308.15 K [kg/m3] | refractive index, 298.15 K | refractive index, 303.15 K | refractive index, 308.15 K | speed of sound, 298.15 K [m/s] | viscosity, 298.15 K [mPa·s] | viscosity, 303.15 K [mPa·s] | viscosity, 308.15 K [mPa·s]
[1] | 765 | 760.7 | 756.3 | – | – | – | 1217 | 0.676 | 0.631 | 0.59
[2] | – | – | – | 1.4217 | 1.4192 | 1.4163 | – | – | – | –

CC1CCCCC1 [methylcyclohexane] + Cc1cc(C)cc(C)c1
x1 = 1
Details | mass density, 298.15 K [kg/m3] | mass density, 303.15 K [kg/m3] | mass density, 308.15 K [kg/m3] | refractive index, 298.15 K | refractive index, 303.15 K | refractive index, 308.15 K | speed of sound, 298.15 K [m/s] | viscosity, 298.15 K [mPa·s] | viscosity, 303.15 K [mPa·s] | viscosity, 308.15 K [mPa·s]
[1] | 765 | 760.7 | 756.3 | – | – | – | 1217 | 0.676 | 0.631 | 0.59
[2] | – | – | – | 1.4217 | 1.4192 | 1.4163 | – | – | – | –

CC1CCCCC1 [methylcyclohexane] + Cc1ccc(C)cc1
Details | mass density, 298.15 K [kg/m3] | mass density, 303.15 K [kg/m3] | mass density, 308.15 K [kg/m3] | refractive index, 298.15 K | refractive index, 303.15 K | refractive index, 308.15 K | speed of sound, 298.15 K [m/s] | viscosity, 298.15 K [mPa·s] | viscosity, 303.15 K [mPa·s] | viscosity, 308.15 K [mPa·s]
[1], x1 = 0.0993 | 846.6 | 842.3 | 837.9 | – | – | – | 1315 | 0.597 | 0.566 | 0.536
[1], x1 = 0.2037 | 836.2 | 831.8 | 827.5 | – | – | – | 1303 | 0.59 | 0.557 | 0.523
[1], x1 = 0.3028 | 826.4 | 822.1 | 817.8 | – | – | – | 1293 | 0.587 | 0.553 | 0.52
[1], x1 = 0.4047 | 816.7 | 812.3 | 808 | – | – | – | 1282 | 0.586 | 0.553 | 0.52
[1], x1 = 0.5382 | 804.2 | 799.9 | 795.5 | – | – | – | 1268 | 0.593 | 0.559 | 0.525
[1], x1 = 0.6035 | 798.3 | 794 | 789.6 | – | – | – | 1261 | 0.597 | 0.562 | 0.528
[1], x1 = 0.703 | 789.5 | 785.1 | 780.8 | – | – | – | 1250 | 0.608 | 0.573 | 0.537
[1], x1 = 0.8037 | 780.8 | 776.5 | 772.2 | – | – | – | 1239 | 0.625 | 0.588 | 0.55
[1], x1 = 0.8981 | 773 | 768.7 | 764.4 | – | – | – | 1228 | 0.646 | 0.607 | 0.569
[1], x1 = 1 | 765 | 760.7 | 756.3 | – | – | – | 1217 | 0.676 | 0.631 | 0.59
[2], x1 = 0.0993 | – | – | – | 1.4848 | 1.482 | 1.4793 | – | – | – | –
[2], x1 = 0.2037 | – | – | – | 1.4767 | 1.4743 | 1.4718 | – | – | – | –
[2], x1 = 0.3028 | – | – | – | 1.469 | 1.4668 | 1.4646 | – | – | – | –
[2], x1 = 0.4047 | – | – | – | 1.4615 | 1.4594 | 1.4572 | – | – | – | –
[2], x1 = 0.5382 | – | – | – | 1.4519 | 1.4498 | 1.4476 | – | – | – | –
[2], x1 = 0.6035 | – | – | – | 1.4473 | 1.4451 | 1.443 | – | – | – | –
[2], x1 = 0.703 | – | – | – | 1.4405 | 1.4384 | 1.4362 | – | – | – | –
[2], x1 = 0.8037 | – | – | – | 1.4338 | 1.4314 | 1.429 | – | – | – | –
[2], x1 = 0.8981 | – | – | – | 1.4279 | 1.4253 | 1.4228 | – | – | – | –
[2], x1 = 1 | – | – | – | 1.4217 | 1.4192 | 1.4163 | – | – | – | –

From the NIST ThermoML archive (doi:10.1016/j.jct.2005.12.005)
